Data on twelve molecules can be found in paper PMC12833874 (Journal of Medicinal Chemistry, 2025).

Each structure is given as a SMILES string. Like-named read-outs stand apart in the source and are kept apart here.

For assay [1], the target named is T1, NOPr (Homo sapiens, UniProt P41146). As to the kind of experiment: BRET G-protein activation (GPA) assay, Gαi2, agonist and antagonist mode, Flp-In-NOPr-CHO cells. The format is cell-based. The following applies: for reduction in inhibitory potency from N-Boc congener to fluorescent ligand: 11g to 13g, 11h to 13h and 14h. For orientation: In BRET a luciferase serves as donor, and the signal depends on an acceptor being close.
T1 sequence (P41146 whole entry): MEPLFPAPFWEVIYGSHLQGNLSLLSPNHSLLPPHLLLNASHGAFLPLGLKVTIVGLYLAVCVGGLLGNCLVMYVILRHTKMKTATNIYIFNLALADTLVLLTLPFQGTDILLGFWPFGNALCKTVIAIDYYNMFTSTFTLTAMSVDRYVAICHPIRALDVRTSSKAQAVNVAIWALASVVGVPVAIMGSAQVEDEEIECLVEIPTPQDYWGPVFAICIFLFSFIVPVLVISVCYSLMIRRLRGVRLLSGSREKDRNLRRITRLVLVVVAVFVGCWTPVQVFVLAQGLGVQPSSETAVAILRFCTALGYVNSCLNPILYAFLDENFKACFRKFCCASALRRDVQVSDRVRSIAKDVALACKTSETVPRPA
Description: The functional activity of congeners 11a-h was assessed in a bioluminescence resonance energy transfer (BRET) assay measuring NOPr activation of the Gαi2 G protein through release of Gβγ subunits in Flp-In-NOPr-Chinese hamster ovary (CHO) cells, as summarized in Figure a.
Data represent the mean ± SEM of n = 4 experiments performed in duplicate. (a) Illustrative representation of the GPA assayligand-induced receptor activation causes G protein dissociation, releasing a Venus-tagged Gβγ (acceptor) to interact with a membrane-localized c-terminus of G protein-coupled receptor kinase 3 (masGRK3ct) fused to a renilla luciferase enzyme (RLuc8) (donor). […] After a 10 min incubation with the R-Luc substrate coelenterazine and NOPr ligands, luminescence was measured to quantify GPA as a BRET ratio between acceptor λem 535 nm/donor λem 475 nm.
Flp-In CHO cells stably expressing SNAP-NOPr were transiently transfected with Gαi2 (2 μg), Gβ1-Venus (156–259)­(1 μg), Gγ2-Venus­(1–155)­(1 μg), and masGRK3ct-RLuc8 (1 μg) using polyethylenimine (PEI) in a 1:6 DNA/PEI ratio. The mixture was suspended in sterile NaCl, vortexed, and then incubated (10 min, RT), before being added to the cells in fresh antibiotic media DMEM (7 mL) supplemented with 10% FBS (v/v) and penicillin (50 units·mL^–1)- streptomycin (50 μg.mL^–1).
Cells were then incubated with coelenterazine H (NanoLight Technology) (10 μL/well, 50 μM, 5 min, RT) before ligands were added to the 96-well plate with final ligand concentrations ranging from (10 μM-0.01 nM). […] Cells were incubated in the plate reader, and luminescence was read using dual emission detection at 475 nm (Rluc8 Donor) and 535 nm emission (BRET signal) at 10 and 30 min. Plates were read on a PHERAstar (BMG Lab Tech), and data were exported through MARS and analyzed using Prism (GraphPad, Version 10).

Another assay deals with T2, SNAP-NOPr (Homo sapiens, UniProt P41146).
T2 construct: expressed in transfected cells
T2 sequence (P41146 whole entry): as above
Kind of assay: Confocal imaging of fluorescent ligand binding, live FlpIn CHO cells stably expressing SNAP-NOPr. The conditions noted are these: for fluorescent ligand binding (confocal images): 1 μM, 30 min at 37 °C, live cells. The format is cell-based. As to the method: To first assess whether the library of fluorescent ligands (13a-h and 14h) can specifically label the NOPr, single time point confocal images of live FlpIn CHO cells stably expressing SNAP-NOPr were captured. Cells were incubated with fluorescent ligands 13a-h and 14h (1 μM) to assess the fluorescent ligand binding.
3 Single time point confocal images of live FlpIn CHO cells stably expressing SNAP-NOPr. Cells were labeled with SNAP-AF488 (cyan) to visualize SNAP-NOPr expression (a–d) and incubated for 30 min at 37 °C with fluorescent ligands 13e–h (1 μM) (magenta) to visualize fluorescent ligand binding (e-h).
For all experiments, live cell single time point confocal images were captured using a Zeiss Cell Discoverer 7 LSM 900 high-content automated confocal microscope. Two images per well were captured using a 10× objective and the Cy5 channel (650 λex, 673 λem), the AF488 (495λex, 520 λem) channel, and the CFP (433λex, 475 λem) channel. All cells were imaged in an imaging buffer containing (2 mM sodium pyruvate, 145 mM NaCl, 10 mM D-glucose, 5 mM KCl, 1 mM MgSO4·7H2O, 10 mM HEPES, 1.3 mM CaCl2 dihydrate, and 1.5 mM NaHCO3).
Stably expressing SNAP-NOPr FlpIn-CHO cells suspended in DMEM (D6421) (100 μL) were seeded (10,000 cells/well) into 96-well poly-D-lysine (PDL)-coated Greiner black polyester plates. Cells were incubated for 48 h at 37 °C and 5% CO2 prior to imaging.
Before measurement, the media were removed, and cells were washed with 90 μL of imaging buffer. Cells were then incubated with SNAP-AF488 (New England Biolabs) (0.5 μg·mL^–1) in imaging buffer for 30 min at 37 °C. After incubation, the SNAP-AF488 solution was aspirated and cells were rinsed twice with imaging buffer (90 μL). […] Cells were incubated for 30 min at 37 °C and 5% CO2 before the images were captured.

Assay [2] concerns the target T1, NOPr. As to the kind of experiment: TR-FRET equilibrium saturation binding, Lumi4Tb-SNAP-NOPr CHO membranes.
Description: The levels of specific binding (total – nonspecific) were calculated and used to determine the dissociation constant (K D) as a measure of affinity.
For 13g-h, the homogeneous TR-FRET (HTRF) ratio [(acceptor λem (665 nM)/donor λem (620 nM) × 10000)] is plotted against ligand concentration (nM) for the total binding (solid circle) and nonspecific binding (NSB) (hollow circle). […] For end point saturation binding assays, data represent the mean ± SEM of n = 3 experiments performed in duplicate, and for kinetic binding studies, all data represent the mean of n = 3 experiments.
All ligands were prepared in TR-FRET buffer, consisting of Hanks’ Balanced Salt Solution (Sigma-Aldrich H6648) (KCl 5 mM, KH2PO4 0.4 mM, NaHCO3 4 mM, NaCl 137 mM, Na2HPO4 0.3 mM), Pluronic-F127 (0.02% w/v), DMSO (1% v/v), and glucose (1 mg.mL^–1), adjusted to pH 7.4. Membrane aliquots were thawed on ice prior to use, and membrane suspensions [membrane (0.05 μg.μL^–1), Gpp­(NH)p (100 μM), and saponin (50 μg.mL^–1)] were prepared in TR-FRET buffer. To ensure homogeneity, the membrane suspension was passed through a 27-gauge needle before use. Measurements were made in low-binding 384-well optiplates (PerkinElmer) on a PHERAstar (BMG Labtech) plate reader using the HTRF module [337 nm excitation with dual emission detection at 620 nm (terbium cryptate donor) and 665 nm emission (fluorescent ligand acceptor)] at a focal height of 11.4 mm. Integration was started 60 μs post irradiation (4 flashes/well) for 400 μs, all saturation and competition binding experiments were carried out in duplicate wells, and data were reported as the mean HTRF ratio ((acceptoremission/donoremission)×10,000) from 3 repeat measurements ±SEM.
Membrane solution (20 μL) was added, and the measurement was taken after a 2 h incubation at 37 °C. All data were converted to specific binding (total – nonspecific) and fitted using eq to determine K D. 2 HTRFratio×10,000=Bmax[FL]/(KD+[FL])
The mark [3] stands for this setting: IC50, antagonist mode, inhibition of EC80 concentration of N/OFQ, n = 4 in duplicate.
Setting [4] is: NOP IC50 (nM), supplementary csv, GPA assay antagonist mode.
Where [5] appears, read: NOP pIC50 ± SEM, supplementary csv, GPA assay antagonist mode.
Setting [6] is: pIC50 ± SEM, antagonist mode, inhibition of EC80 concentration of N/OFQ, n = 4 in duplicate.
The mark [7] stands for this setting: antagonist mode, inhibition of EC80 concentration of N/OFQ, n = 4 in duplicate, read-out: IC50 (converted).
Setting [8] is: antagonist mode, inhibition of EC80 concentration of N/OFQ, n = 4 in duplicate, read-out: pIC50 ± SEM (converted).
Where [9] appears, read: supplementary csv, GPA assay antagonist mode, read-out: NOP IC50 (converted).
Where [10] appears, read: supplementary csv, GPA assay antagonist mode, read-out: NOP pIC50 ± SEM (converted).

Take `CC(C)(C)OC(=O)NCCOc1cccc(CN2CCC[C@@H]2C(=O)NCCCN2CCC3(CC2)OCc2ccccc23)c1` [11g, tert-Butyl (R)-(2-(3-((2-((3-(3H-Spiro[isobenzofuran-1,4′-piperidin]-1′-yl)propyl)carbamoyl)pyrrolidin-1-yl)methyl)phenoxy)ethyl)carbamate]: the IC50 is 20 nM at NOPr [1] (setting [3]), 19.5 nM on NOPr [1] (setting [4]), 19.5 nM at NOPr [1] (setting [5]) and 20 nM at NOPr [1] (setting [6]).
As for `CN1/C(=C/C=C/C=C/C2=[N+](CCCCCC(=O)NCCOc3ccc(CN4CCC[C@@H]4C(=O)NCCCN4CCC5(CC4)OCc4ccccc45)cc3)c3ccc(S(=O)(=O)[O-])cc3C2(C)C)C(C)(C)c2cc(S(=O)(=O)[O-])ccc21.[K+]` [13h, Potassium 1-(6-((2-(4-(((R)-2-((3-(3H-Spiro[isobenzofuran-1,4′-piperidin]-1′-yl)propyl)carbamoyl)pyrrolidin-1-yl)methyl)phenoxy)ethyl)amino)-6-oxohexyl)-3,3-dimethyl-2-((1E,3E)-5-((E)-1,3,3-trimethyl-5-sulfonatoindolin-2-ylidene)penta-1,3-dien-1-yl)-3H-indol-1-ium-5-sulfonate], on NOPr [1], the “reduction in inhibitory potency from N-Boc congener to fluorescent ligand” value was at least 20 fold. Moreover, the “fluorescent ligand binding (confocal images)” value (“fluorescent ligand binding” below) at SNAP-NOPr is recorded as “more pronounced binding”. Moreover, the “binding behaviour at the highest concentration tested” value at NOPr [2] (400 nM) is “saturable binding with minimal nonspecific binding”. Further, the “higher affinity of 13h than 13g” value on NOPr [2] (saturation KD) is 5 fold.
`CN1/C(=C/C=C/C=C/C2=[N+](CCCCCC(=O)NCCOc3cccc(C(=O)N4CCC[C@@H]4C(=O)NCCCN4CCC5(CC4)OCc4ccccc45)c3)c3ccc(S(=O)(=O)[O-])cc3C2(C)C)C(C)(C)c2cc(S(=O)(=O)[O-])ccc21.[K+]` [13e, Potassium 1-(6-((2-(3-((R)-2-((3-(3H-Spiro[isobenzofuran-1,4′-piperidin]-1′-yl)propyl)carbamoyl)pyrrolidine-1-carbonyl)phenoxy)ethyl)amino)-6-oxohexyl)-3,3-dimethyl-2-((1E,3E)-5-((E)-1,3,3-trimethyl-5-sulfonatoindolin-2-ylidene)penta-1,3-dien-1-yl)-3H-indol-1-ium-5-sulfonate]: the “fluorescent ligand binding” value on SNAP-NOPr was “Binding was observed”.
Consider `CC(C)(C)OC(=O)NCCC(=O)N1CCC[C@@H]1C(=O)NCCCN1CCC2(CC1)OCc1ccccc12` [11b, tert-Butyl (R)-(3-(2-((3-(3H-Spiro[isobenzofuran-1,4′-piperidin]-1′-yl)propyl)carbamoyl)pyrrolidin-1-yl)-3-oxopropyl)carbamate], for which the IC50 is 7800 nM at NOPr [1] (setting [3]), 7760 nM on NOPr [1] (setting [4]), 7760 nM at NOPr [1] (setting [5]) and 7940 nM at NOPr [1] (setting [6]).
On to `C[C@H](NC(=O)OC(C)(C)C)C(=O)N1CCC[C@@H]1C(=O)NCCCN1CCC2(CC1)OCc1ccccc12` [11a, tert-Butyl ((S)-1-((R)-2-((3-(3H-Spiro[isobenzofuran-1,4′-piperidin]-1′-yl)propyl)carbamoyl)pyrrolidin-1-yl)-1-oxopropan-2-yl)carbamate], for which the results for the IC50 on NOPr [1] (setting [3]), on NOPr [1] (setting [5]) and on NOPr [1] (setting [6]) were 11700 nM, 11700 nM and 12600 nM, respectively.
As for `CC(C)(C)OC(=O)NCCCCC(=O)N1CCC[C@@H]1C(=O)NCCCN1CCC2(CC1)OCc1ccccc12` [11d, tert-Butyl (R)-(5-(2-((3-(3H-Spiro[isobenzofuran-1,4′-piperidin]-1′-yl)propyl)carbamoyl)pyrrolidin-1-yl)-5-oxopentyl)carbamate], the IC50 is 1200 nM at NOPr [1] (setting [7]), 1260 nM on NOPr [1] (setting [8]), 1230 nM on NOPr [1] (setting [9]) and 1230 nM on NOPr [1] (setting [10]).
Turning to `CC(C)(C)OC(=O)NCCOc1cccc(C(=O)N2CCC[C@@H]2C(=O)NCCCN2CCC3(CC2)OCc2ccccc23)c1` [11e, tert-Butyl (R)-(2-(3-(2-((3-(3H-Spiro[isobenzofuran-1,4′-piperidin]-1′-yl)propyl)carbamoyl)pyrrolidine-1-carbonyl)phenoxy)ethyl)carbamate], the IC50 at NOPr [1] (setting [7]) was 370 nM; at NOPr [1] (setting [8]), 398 nM; at NOPr [1] (setting [9]), 372 nM; on NOPr [1] (setting [10]), 372 nM.
Consider `CC(C)(C)OC(=O)NCCCC(=O)N1CCC[C@@H]1C(=O)NCCCN1CCC2(CC1)OCc1ccccc12` [11c, tert-Butyl (R)-(4-(2-((3-(3H-Spiro[isobenzofuran-1,4′-piperidin]-1′-yl)propyl)carbamoyl)pyrrolidin-1-yl)-4-oxobutyl)carbamate], for which the IC50 is 4900 nM at NOPr [1] (setting [7]), 5010 nM at NOPr [1] (setting [8]) and 4900 nM on NOPr [1] (setting [10]).
Turning to `CN1/C(=C/C=C/C=C/C2=[N+](CCCCCC(=O)NCCOc3ccc(C(=O)N4CCC[C@@H]4C(=O)NCCCN4CCC5(CC4)OCc4ccccc45)cc3)c3ccc(S(=O)(=O)[O-])cc3C2(C)C)C(C)(C)c2cc(S(=O)(=O)[O-])ccc21.[K+]` [13f, Potassium 1-(6-((2-(4-((R)-2-((3-(3H-Spiro[isobenzofuran-1,4′-piperidin]-1′-yl)propyl)carbamoyl)pyrrolidine-1-carbonyl)phenoxy)ethyl)amino)-6-oxohexyl)-3,3-dimethyl-2-((1E,3E)-5-((E)-1,3,3-trimethyl-5-sulfonatoindolin-2-ylidene)penta-1,3-dien-1-yl)-3H-indol-1-ium-5-sulfonate], the “fluorescent ligand binding” value at SNAP-NOPr is given as “Binding was observed”.
With `CC(C)(C)OC(=O)NCCOc1ccc(C(=O)N2CCC[C@@H]2C(=O)NCCCN2CCC3(CC2)OCc2ccccc23)cc1` [11f, tert-Butyl (R)-(2-(4-(2-((3-(3H-Spiro[isobenzofuran-1,4′-piperidin]-1′-yl)propyl)carbamoyl)pyrrolidine-1-carbonyl)phenoxy)ethyl)carbamate], the IC50 on NOPr [1] (setting [7]) was 270 nM; at NOPr [1] (setting [8]) it was 251 nM; at NOPr [1] (setting [9]), 269 nM; on NOPr [1] (setting [10]) it was 269 nM.
`CC(C)(C)OC(=O)NCCOc1ccc(CN2CCC[C@@H]2C(=O)NCCCN2CCC3(CC2)OCc2ccccc23)cc1` [11h, tert-Butyl (R)-(2-(4-((2-((3-(3H-Spiro[isobenzofuran-1,4′-piperidin]-1′-yl)propyl)carbamoyl)pyrrolidin-1-yl)methyl)phenoxy)ethyl)carbamate]: the IC50 is 5.5 nM at NOPr [1] (setting [3]), 5.5 nM on NOPr [1] (setting [5]) and 5.01 nM on NOPr [1] (setting [6]).
As for `O=C(CCCCCNC(=O)COc1ccc(/C=C/C2=[N+]3C(=Cc4ccc(-c5cccs5)n4[B-]3(F)F)C=C2)cc1)NCCOc1ccc(CN2CCC[C@@H]2C(=O)NCCCN2CCC3(CC2)OCc2ccccc23)cc1` [14h, (R,E)-N-(3-(3H-Spiro[isobenzofuran-1,4′-piperidin]-1′-yl)propyl)-1-(4-(2-(6-(2-(4-(2-(5,5-Difluoro-7-(thiophen-2-yl)-5H-4λ^4,5λ^4-dipyrrolo[1,2-c:2′,1′-f][1,3,2]diazaborinin-3-yl)vinyl)phenoxy)acetamido)hexanamido)ethoxy)benzyl)pyrrolidine-2-carboxamide], the “reduction in inhibitory potency from N-Boc congener to fluorescent ligand” value at NOPr [1] is on record as at least 20 fold. In addition, the “functional agonism at the NOPr” value at NOPr [1] (agonist mode, absence of N/OFQ) is “no functional agonism”. The IC50 on NOPr [1] (setting [7]) is 130 nM; on NOPr [1] (setting [8]), 126 nM; on NOPr [1] (setting [9]), 126 nM. Also, on SNAP-NOPr (1 μM ligand, SB-612111 1 μM), the “specificity of labeling: displacement by SB-612111 / nonspecific labeling” value is on record as “significant nonspecific labeling”.
